# Assay results reported in patent publication US12042523B2, “Compositions and methods for managing or improving bone disorders, joint disorders, cartilage disorders, or a combination thereof” (Unigen, Inc., priority 2014, dated 2024).
# Assays:
# [1] = test system: rhIL-1α-mediated degradation of proteoglycan in rabbit articular cartilage explants; assay: Ex vivo glycosaminoglycans (GAG) release assay; type: cell-based; details: for effect on rhIL-1α-mediated degradation of PG / % GAG release: rhIL-1α 5 ng/ml; for % GAG release: IL-1α alone = 100
# Protocol: Articular cartilage from hock joints of rabbits (2.5 kg body weight) was removed immediately after each animal was sacrificed and articular cartilage explants were obtained by following the method described by Sandy et al. (Biochem. Biophy Acta 543:36, 1978).
# Briefly, after the articular surfaces were surgically exposed under sterile conditions, approximately 200-220 mg articular surfaces per joint were dissected and submerged into complete medium (DMEM, supplemented with heat inactivated 5% FBS; penicillin 100 U/ml; streptomycin 100 ug/ml). They were then rinsed several times with the complete medium and incubated for 1 to 2 days at 37° C. in a humidified 5% CO2/95% air incubator for stabilization. The complete medium was replaced with a basal medium (DMEM, supplemented with heat-inactivated 1% FBS, 10 mM HEPES, and penicillin 100 U/ml streptomycin 100 μg/ml). Approximately 30 mg cartilage pieces (2×3×0.35 mm/piece) were placed in 24-well plates and treated with given concentrations of test agents. After pretreatment for 1 h, 5 ng/ml of rhIL-1α was added to the culture medium and further incubated at 37° C. in a humidified 5% CO2/95% air incubator. The culture medium was collected 24 h later and stored at −20° C. until assay.
# The amount of sulphated GAGs (e.g., released from proteoglycans) in the medium at the end of the reaction reflects the amount of articular cartilage degradation, which was determined using the commercially available 1,9-dimethy-methylene blue method according to the instructions of the manufacturer (Blyscan™ assay, Accurate Chemical and Scientific Corp., Westbury, New York).
# BKB1 receptor (BKB1R) = target: T1, BKB1 receptor (BKB1R) (Homo sapiens, UniProt P46663); assay: Bradykinin B1 (BKB1) radioligand binding assay
# T1 construct: Membranes from human IMR-90 lung fibroblasts, stimulated with IL-1β; endogenous in cells; host or cells: human IMR-90 lung fibroblasts stimulated with IL-1β (membranes)
# T1 sequence (P46663 1-353): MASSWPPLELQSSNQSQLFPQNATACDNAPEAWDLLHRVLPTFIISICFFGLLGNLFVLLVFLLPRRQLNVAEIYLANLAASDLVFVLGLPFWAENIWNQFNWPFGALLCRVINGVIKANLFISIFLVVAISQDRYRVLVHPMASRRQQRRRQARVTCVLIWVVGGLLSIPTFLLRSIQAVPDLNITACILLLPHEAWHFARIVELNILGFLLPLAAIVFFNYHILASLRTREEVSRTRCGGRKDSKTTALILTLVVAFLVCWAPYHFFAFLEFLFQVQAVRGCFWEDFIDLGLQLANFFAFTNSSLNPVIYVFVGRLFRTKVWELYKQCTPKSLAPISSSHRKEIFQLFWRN
# Protocol: Bradykinin B1 (BKB1) radioligand binding assay was conducted to determine the inhibition activity of Curcuma longa OE and extract fractions on BKB1 binding to BKB1 receptor (BKB1R). Membranes from human IMR-90 lung fibroblasts, stimulated with IL-1β in modified HEPES buffer (PH=7.4), were incubated with a test sample in the presence of 0.9 nM [^3H](Des-Arg^10)-Kallidin for 60 minutes at room temperature. After incubation, membranes were filtered and washed five times with modified DPBS buffer (pH=7.4). Samples were scintillation counted to determine the amount of specifically bound to the BKB1 receptor containing membrane.
# BKB1 binding assay, as described in Example 15, was used to test curcumin compound isolated from a Curcuma longa extract (Compound 11), as well as commercially available curcumin purchased from Sigma-Aldrich (C1386). Curcumin was tested at final concentrations ranging from 200 μM to 5 nM. Binding curves were plotted by non-linear regression fit (using GraphPad Prizm software). Ki values were computed using Cheng-Prusoff algorithm. In addition, inhibition of BKB2 receptor binding activity by curcumin was examined with methods similar to those described in Example 15 for the BKB1 receptor with some modifications. Bradykinin Radioligand Binding Assay (BKB2) was conducted using a standard assay under the following conditions: • 1. […] Reading: TopCount.
structure (smiles),measurement,setting,value
CC(C)=CCc1c(-c2ccc(O)cc2O)oc2c3c(cc(O)c2c1=O)OC(C)(C)C=C3 [Morusin],effect on rhIL-1α-mediated degradation of PG,[1],strong inhibitory effect
"OC[C@H]1O[C@@H](Oc2cc(O)cc(/C=C/c3ccc(O[C@@H]4O[C@H](CO)[C@@H](O)[C@H](O)[C@H]4O)cc3O)c2)[C@H](O)[C@@H](O)[C@@H]1O [Mulberoside A, mulberroside A]",effect on rhIL-1α-mediated degradation of PG,[1],strong inhibitory effect
"CC(=O)N[C@H]1C(O)O[C@H](CO)[C@@H](O)[C@@H]1O (stereo partly drawn) [NAG, N-Acetyl Glucosamine]",inhibition at 150 µg/mL,"[1]; Oryctolagus cuniculus, 150 μg/ml, individual",31.8%
same,% GAG release,[1]; sample 12.5 μg/ml,95.7%
same,% GAG release,[1]; sample 25 μg/ml,99.2%
same,% GAG release,[1]; sample 50 μg/ml,87.5%
same,% GAG release,[1]; sample 75 μg/ml,81.2%
COc1cc(/C=C/C(=O)CC(=O)/C=C/c2ccc(O)c(OC)c2)ccc1O [Curcumin],BKB1 versus BKB2 binding inhibition,BKB1 receptor (BKB1R),selective BKB1 antagonist
Oc1cc(O)cc(/C=C/c2ccc(O)cc2O)c1 [Oxyresveratrol],effect on rhIL-1α-mediated degradation of PG,[1],strong inhibitory effect
